[invAb] = inverted abasic unit; m = 2'-O-methyl; r = 2'-OH (RNA); f = 2'-fluoro
Legend:
[1] = test system: α-SMA mRNA; test: Inhibition of α-SMA mRNA induction by TGF-β1 in HLF cells; assay type: cell-based, human; details: for Inhibition of upregulation of α-SMA mRNA by TGF-β1: 10 nM siNA, FIG. 12
Procedure: A549 cells (ECACC, 86012804) were maintained in Dulbecco's Modified Eagle Medium (DMEM) containing 10% Fetal Calf Serum (FCS), 2 mM L-glutamine, 100 U/ml penicillin and 100 μg/ml streptomycin (all from GIBCO). Sub-confluent cultures (2.7×10^3 cells/cm^2) were seeded in collagen-coated multi-well plates (Becton Dickenson) and grown for three days. Cells were quiesced using the same medium containing 0.5% FCS, for 24 hours prior to stimulation with cytokines. Cells were incubated with 0-10 ng/ml TGF-(31 for the periods indicated. Normal Human Lung Fibroblasts (HLFs) were obtained from Lonza and maintained in Fibroblast Growth Medium supplemented with growth factors (Lonza #CC-3132); final serum concentration of medium was 2%. HLFs were treated with cytokines in serum-free medium. Normal Human Bronchial Epithelial cells (NHBEs, also obtained from Lonza) were maintained and transfected in Lonza BEBM with SingleQuots (Lonza #CC-3170). All growth factors from the kit were added, except retinoic acid. All cultures were maintained at 37° C. in a humidified incubator with 5% CO2 atmosphere.
Cells were harvested at time points appropriate for the experiment. Supernatants were removed and stored at −70° C. until analysis. Cells were washed using Dulbecco's Phosphate Buffered Saline (DPBS, GIBCO), prior to lysis. RNA lysates for Taqman analysis were produced using Promega RNA lysis buffer. All lysates were stored at −70° C. until use.
Cells were seeded on 96-well tissue culture plates (A549s and NHBEs, collagen-coated plates at densities of 5×10^3 and 1.2×10^4 respectively; HLFs on flat-bottom tissue culture plates, at 1×10^4 cells per well) in 100 μl of growth medium. […] Knockdown is calculated compared to CTGF expression of cells transfected with the universal control siNA.
RNA was isolated using a Biomek 2000 robot and Promega SV 96 Total RNA Isolation kits. cDNA was synthesised using a High Capacity cDNA Reverse Transcription Kit (Applied Biosciences) on a 96-well thermal cycler. […] Plates were analysed using an ABI Taqman RT-PCR machine, and SDS 2.2 Automation Controller software. […]

[2] = test system: CTGF protein; test: CTGF Western Blot in siNA-transfected NHLF cells (6-well plate); assay type: cell-based, human; details: for Mean % KD (30 nM, 72 h) n = 5: CTGF protein; for Mean % KD (30 nM, 72 h) n = 5 / Density (CTGF)/Density (α-Tubulin) (3 pM, 72 hours) / Density (CTGF)/Density (α-Tubulin) (300 pM, 72 hours) / Density (CTGF)/Density (α-Tubulin) (30 nM, 72 hours): NHLF cells; for Density (CTGF)/Density (α-Tubulin) (3 pM, 72 hours) / Density (CTGF)/Density (α-Tubulin) (300 pM, 72 hours): n = 3, ratio ± S.D.; for Density (CTGF)/Density (α-Tubulin) (30 nM, 72 hours): n = 5, ratio ± S.D.; for % Protein Reduction at 30 nM (72 hrs): human NHLF cells, mean ± S.D.
Procedure: NHLF cells were plated in 6-well plates at final counts of 70,000 cells/well in 2 ml of complete growth media. Transfection was performed using 2.5 uL of RNAiMax per well. Final concentration of siNAs was 30 nM (screen) and 30, 0.3, and 0.003 nM (dose response study). Protein lysates were harvested 24, 48, and 72 hours post-transfection (screen) and 72 hours post-transfection (dose response study). Protein lysates were prepared using Cell Extraction Buffer (Invitrogen, cat# FNN0011) according to manufacturer's instructions. Protein concentration was measured using a Bradford Quick Start Kit (Bio-Rad, cat# 500-0205).
The protein source for the Western Blot experiments were from transfection of NHLF cells in a 6 well plate, as described above.
Protein samples were diluted 1:1 in 2× Laemmli buffer with 5% β-mercapto-ethanol and incubated at 95° C. for 5 minutes. 40-50 ug of protein was loaded in each lane of 10% Tris-HCl gel. One lane was designated for MagicMark Protein Standard (Invitrogen # LC5602). The gel was run at 100V for approximately 2 hours. Protein was transferred to a PVDF membrane at 100V for 60 minutes. Once the transfer was finished, the membrane was blocked in 1% Casein in PBS (BioRad Cat#161-0783) for 1 hour on a plate rocker at room temperature followed by the overnight incubation at 4° C. with goat […] anti-CTGF primary antibody (Santa Cruz Biotechnology, cat# L-20) diluted 1:200 in 1% Casein in PBS. On the next day, the blot was washed 4×5 minutes in PBST (0.1% Tween-20 in PBS) solution and incubated for 30 minutes at room temperature with rabbit anti-goat secondary antibody (Pierce Biotechnology, cat# 31402) diluted 1:1,000 in 1% Casein in PBS. Then, the blot was washed 4×5 minutes with PBST and incubated for 1 minute with ECL Western Blotting Substrate (Pierce Biotechnology, Cat# 32106). The bands were visualized on the Bio-Rad VersaDoc Imager.
The protein bands were quantified by computing their density which is defined by the ratio between the total intensity of all pixels and the area of the rectangle drawn around each band (intensity/mm^2). The density was calculated by the BioRad software.
The level of protein was quantified using the Bio-Rad VersaDoc Imager according to the protocols of that piece of equipment. A pixel count was performed in each lane using an area of identical size. Each sample was then compared to the appropriate control treated sample and converted to a percent of protein remaining compared to control.
The effects of lead siNAs on CTGF protein level were compared to the effects of the universal control using a two tail Student's T-test to obtain a P value. P<0.05 was considered significant.
The densities of CTGF bands were normalized to the respective densities of α-Tubulin by calculating the ratio of the density of CTGF band and the density of α-Tubulin band. The ratios of the treatments were then compared to the ratio of the control group using an unpaired t-test with unequal variances.

Substance | Inhibition of upregulation of α-SMA mRNA by TGF-β1 [1] | Mean % KD (30 nM, 72 h) n = 5 [2] [%] | Density (CTGF)/Density (α-Tubulin) (3 pM, 72 hours) [2] | Density (CTGF)/Density (α-Tubulin) (300 pM, 72 hours) [2] | Density (CTGF)/Density (α-Tubulin) (30 nM, 72 hours) [2] | % Protein Reduction at 30 nM (72 hrs) [2] [%] | α-SMA expression levels relative to untreated cells ([1]; 5 and 10 ng/ml TGF-β1)
48048-DC: siNA duplex; sense SEQ ID NO: 61 B GAuAGcAucuuAuAcGAGu TTB; antisense SEQ ID NO: 62 ACUcGuAuAAGAuGcuAucUU (sense GAUAGCAUCUUAUACGAGUTT; antisense ACUCGUAUAAGAUGCUAUCUU; sense: DNA at AGT, 2'-fluoro at CU, [invAb] at 5' end, 3' end, backbone not given here; antisense: sugars from the 5' end rrrfmfmfmmmmfmffmffmm, backbone not given here) | consistent but not significant knockdown of α-SMA | 83 ± 10 | 0.31 ± 0.2 | 0.09 ± 0.06 | 0.10 ± 0.10 | 83 ± 10 | –
48046-DC: siNA duplex; sense SEQ ID NO: 57 B cAcAGcAccAGAAuGuAuA TTB; antisense SEQ ID NO: 58 UAUAcAuucuGGuGcuGuGUU (sense CACAGCACCAGAAUGUAUATT; antisense UAUACAUUCUGGUGCUGUGUU; sense: DNA at AGT, 2'-fluoro at CU, [invAb] at 5' end, 3' end, backbone not given here; antisense: sugars from the 5' end rrrmfmffffmmfmffmfmmm, backbone not given here) | – | 82 ± 11 | 0.56 ± 0.3 | 0.13 ± 0.08 | 0.11 ± 0.10 | 82 ± 11 | –
48047-DC: siNA duplex; sense SEQ ID NO: 59 B cGAGuAAuAuGccuGcuAu TTB; antisense SEQ ID NO: 60 AUAGcAGGcAuAuuAcucGUU (sense CGAGUAAUAUGCCUGCUAUTT; antisense AUAGCAGGCAUAUUACUCGUU; sense: DNA at AGT, 2'-fluoro at CU, [invAb] at 5' end, 3' end, backbone not given here; antisense: sugars from the 5' end rrrmfmmmfmfmffmfffmmm, backbone not given here) | – | 58 ± 26 | 0.51 ± 0.4 | 0.17 ± 0.1 | 0.22 ± 0.13 | 58 ± 26 | –
48055-DC: siNA duplex; sense SEQ ID NO: 75 B cAAGuuAuuuAAAucuGuu TTB; antisense SEQ ID NO: 76 AACAGAuuuAAAuAAcuuGUU (sense CAAGUUAUUUAAAUCUGUUTT; antisense AACAGAUUUAAAUAACUUGUU; sense: DNA at AGT, 2'-fluoro at CU, [invAb] at 5' end, 3' end, backbone not given here; antisense: sugars from the 5' end rrrmmmfffmmmfmmfffmmm, backbone not given here) | – | 84 ± 5 | 0.28 ± 0.04 | 0.10 ± 0.06 | 0.09 ± 0.04 | 84 ± 5 | –
48042-DC: siNA duplex; sense SEQ ID NO: 49 B GAcAuuAAcucAuuAGAcu TTB; antisense SEQ ID NO: 50 AGUcuAAuGAGuuAAuGucUU (sense GACAUUAACUCAUUAGACUTT; antisense AGUCUAAUGAGUUAAUGUCUU; sense: DNA at AGT, 2'-fluoro at CU, [invAb] at 5' end, 3' end, backbone not given here; antisense: sugars from the 5' end rrrffmmfmmmffmmfmffmm, backbone not given here) | significantly inhibited the upregulation of α-SMA | 86 ± 13 | 0.45 ± 0.13 | 0.11 ± 0.06 | 0.09 ± 0.11 | 86 ± 13 | comparable to untreated cells

— patent publication US20120016011A1, “RNA Interference Mediated Inhibition of Connective Tissue Growth Factor (CTGF) Gene Expression Using Short Interfering Nucleic Acid (siNA)” (Merck Sharp & Dohme Corp., priority 2009, published 2012)
